Measured values: PMC11329504, “Identification of novel small molecule-based strategies of COL7A1 upregulation and readthrough activity for the treatment of recessive dystrophic epidermolysis bullosa” (Scientific Reports, 2024)

Columns and labels:
Assay type in all cases: cell-based, human
[1] = test system: total (truncated + full length) C7 in RDEB_L5 cells; assay: AlphaLISA quantification of total C7 in RDEB_L5 cells; settings: for EC50: Homo sapiens, total C7 AlphaLISA, 48 h, 20 ng/mL TGFß2, relative EC50, mean ± SD, read-out: Increase in C7 levels EC50; for Increase in C7 levels Emax, % vs baseline: 20 ng/mL TGFß2
Experimental: The AlphaLISA assay was developed in-house by using the biotin-conjugated rabbit polyclonal antibody anti-C7 (LSBio LS-298147) and conjugating the acceptor beads (PerkinElmer 6772001) to a monoclonal anti-Collagen type VII antibody produced in mouse, clone LH7.2 (Thermo MA5-13,432). Formulation of the mAb clone LH7.2 was exchanged to PBS and concentrated 5 × by using Amicon® Ultra-0.5 centrifugal filters up to 1 mg/ml. The conjugation procedure was carried out according to the protocol provided by PerkinElmer.
For compound treatment in RDEB patient-derived transformed keratinocytes, 5,000 cells were plated in 20 µL of supplemented KGM media containing 20 ng/mL TGFβ2 (SIGMA GF113) without GA-1000 in 384-well cell culture plates (Greiner 781098). The day after, 5 µL of test compounds prepared 5 × in supplemented KGM without GA-1000 were added over cells and incubated for 48 h at 37 °C and 5% CO2. For compound treatment in HEK293^R578X, 10,000 cells were plated in 20 μL of DMEM (High Glucose, 2 mM L-Glutamine, sodium pyruvate, and FBS 10%) in 384-well cell culture plates (Greiner 781,098,). The day after, 5 μL of test compounds prepared 5 × in DMEM complete medium were added over cells and incubated for 48 h at 37 °C and 5% CO2.
After the treatment process, 2.5 µL of RIPA buffer 10 x (Abcam ab156034) were added over the […] of cells for 20 min at room temperature to obtain a complete cell lysis. Then, 2 μL of sample (i.e., cell lysate with supernatant) were transferred to the AlphaLISA plate (PerkinElmer 6,059,340) containing […] of antibodies mixture ([…] of acceptor Beads-Ab and […] of biotin-rAb) prepared in AlphaLISA buffer 1 x (PerkinElmer AL00F). The reaction was incubated for 90 min at room temperature. Finally, 10 μL of […] of donor beads (PerkinElmer 6760002,) were added to the reaction under subdued light, mixed gently, and incubated for 3 h at room temperature. AlphaLISA signal was detected with an Envision microplate reader (Perkin Elmer) using the following setting: Filter: AlphaScreen, Excitation time: 180 ms, Integration time: 300 ms.
Statistical analyses were performed using GraphPad Prism v. 7.04 (La Jolla, California). Results are shown as mean ± SD of experimental replicates. Dose–response curves to assess compound treatment effect were plotted in a four-parameter logistic model. Relative EC50, representing the total drug concentration producing a 50% effect, was calculated in the four-parameter logistic equation. Comparisons of collagen protein and mRNA expression in different experimental conditions were made using ANOVA, followed by a post hoc test. statistical significance was considered with p values < 0.05.

[2] = test system: truncated and full-length C7 in RDEB_L1, RDEB_L5 and HEK293^R578X cells; assay: Western blot detection of truncated and full-length C7
Experimental: For western blot, RDEB or normal human keratinocytes were lysed in protein extraction buffer (50 mM Tris–HCl [pH 7.5], 100 mM NaCl, 1% Nonidet P-40, and 4 mM EDTA) containing proteinase inhibitors cocktail (Complete Mini, EDTA free; Roche Diagnostics, Mannheim, Germany). Lysates were incubated for 30 min on ice and centrifuged at 15,000 g for 30 min at 4 °C. Supernatants were then collected and concentrated by ultrafiltration using Amicon Ultra columns (10 kDa; Millipore, Ireland). Protein concentrations were measured using the Bradford assay (Bio-Rad, Hercules, CA). For each sample, […] total protein was resolved on NuPAGE Novex 3%–8% Tris–Acetate gel electrophoresis (Invitrogen, Carlsbad, CA) and electrotransferred to nitrocellulose membranes (Invitrogen, Carlsbad, CA). For type VII collagen analysis, blots were probed with a monospecific polyclonal anti-C7 antibody (a generous gift from Dr. A. Nystrom, University of Freiburg). Invitrogen anti-MDH1 polyclonal antibody (PA550446, 1:1000) was used to detect MDH1. Standard antibodies against a reference protein were used as a loading control, as indicated. Visualization of the resulting signal was performed by incubating with horseradish peroxidase (HRP)- conjugated anti-rabbit antibody (Amersham, Burlington, MA) and West Pico Chemiluminescent Substrate (Pierce, Rockford, IL).

[3] = test system: MDH1 native stop codon readthrough in RDEB_L1 and RDEB_L5 cells; assay: Western blot of MDH1 native stop codon (NSC) readthrough selectivity; settings: 48 h
Excerpt: In the absence of a verified target or mechanism of action, a key aspect of phenotypic screening is to ensure that the phenotypic activity is sufficiently selective and has minimal or no interference in physiologically close cellular processes. In this context, the selectivity of readthrough compounds vs native stop codons (NSC) and normal codon–anticodon recognition is an important endpoint to verify the selectivity of hit compounds. For that purpose, we analyzed the translation products of MDH-1, a gene that has an alternative native stop codon that has been used as a surrogate of non-specific readthrough activity[42],[43]. […] For western blot, RDEB or normal human keratinocytes were lysed in protein extraction buffer (50 mM Tris–HCl [pH 7.5], 100 mM NaCl, 1% Nonidet P-40, and 4 mM EDTA) containing proteinase inhibitors cocktail (Complete Mini, EDTA free; Roche Diagnostics, Mannheim, Germany). Lysates were incubated for 30 min on ice and centrifuged at 15,000 g for 30 min at 4 °C. Supernatants were then collected and concentrated by ultrafiltration using Amicon Ultra columns (10 kDa; Millipore, Ireland). Protein concentrations were measured using the Bradford assay (Bio-Rad, Hercules, CA). […] A. Nystrom, University of Freiburg). Invitrogen anti-MDH1 polyclonal antibody (PA550446, 1:1000) was used to detect MDH1. […]

NC(=O)Cn1ccc2ccc(-c3cnc(N)c(C(=O)NC4C5CC6CC4CC(O)(C6)C5)n3)cc21 (centres unmarked) [Compound 1]
EC50 [1]: 4.7 ± 0.8 µM
Increase in C7 levels Emax, % vs baseline ([1]; at 12.5 µM): 1401 ± 384 at 12.5 % vs baseline
C7 products induced, western blot ([2]; RDEB_L1 cells, 10 μM): only upregulating the truncated form of C7

C#Cc1cc(-c2ccncc2)c(-c2cccc(F)c2)nc1N [Compound 7]
non-specific readthrough at MDH-1 native stop codon, western blot ([3]; two and threefold above its EC50 in RDEB_L5 and RDEB_L1 cells respectively): did not induce non-specific readthrough above background levels
EC50 [1]: 23 ± 11 µM
Increase in C7 levels Emax, % vs baseline ([1]; at 50 µM): 293 ± 58 at 50 % vs baseline
C7 products induced, western blot ([2]; RDEB_L1 and HEK293^R578X cells, 50 μM compound 7, 50 μM chuangxinmycin, 100 μM 3-methyl-chuangxinmycin): partially upregulated full-length C7

CNC(C)C1CCC(N)C(OC2C(N)CC(N)C(OC3OCC(C)(O)C(NC)C3O)C2O)O1 (centres unmarked) [Gentamicin, reference compound]
non-specific readthrough at MDH-1 native stop codon, western blot ([3]; twofold above its EC50 in RDEB_L1): inducing detectable non-specific readthrough
EC50 [1]: 420 ± 390 µM
Increase in C7 levels Emax, % vs baseline ([1]; at 1600 µM): 41 ± 3.3 at 1600 % vs baseline
concentrations showing some upregulation of truncated and full-length forms of C7 in western blot ([2]; western blot): > 1 mM
